# According to patent US8481690B2, “Methods for detecting symmetrical dimethylarginine” (IDEXX Laboratories, Inc., priority 2008, dated 2013):
# Assays:
# Assay type in all cases: binding
# [1] = test system: rabbit anti-SDMA antibody in serum, Rabbit # 153 (SDMA conjugated with KLH immunogen); assay: Competitive ELISA, specificity of anti-SDMA antibody, Rabbit # 153; details: Rabbit # 153 (1:2.5K); for IC 50: competition with SDMA-HRP conjugate
# Protocol: (§1) In order to assess the specificity of the antibodies obtained by the procedures described in Example 3 above, their reactivity to SDMA, ADMA, L-arginine, and/or N-methylarginine was measured in a competitive ELISA assay (Table 1).
# (§2) ADMA-2HCl, SDMA-2HCl, N-methylarginine acetate (Sigma, Cat. No. M7033) or L-arginine (Sigma, Cat. No. A5006) were each dissolved in PBS to make stock solutions at 1 mg/ml. From these stock solutions, working solutions at 100 μg/ml, 10 μg/m and 1 μg/m were prepared in PBS.
# (§3) […] After a 30 minutes incubation period at room temperature, the wells were washed 4 times with PBST (Phosphate Buffered Saline, 0.05% Tween).
# (§4) 100 μl of 3,3′,5,5′-Tetramethylbenzidine (commercially available from Promega Corporation of Madison, Wis.) was subsequently added. Following a 30 minutes incubation period at room temperature, 100 μl of stop solution (1 N HCl) was added and the absorbance was measured at […] using a BioTek ELX 808 (Winooski, Vt.) plate reader. The data was subjected to quantification using Softmax software (Molecular Devices, Sunnyvale, Calif.).
# (§5) The absorbance values obtained with 0 μg/mL, 1 μg/mL, 10 μg/mL, and 100 μg/mL of ADMA, SDMA, N-methylarginine or L-arginine, respectively, were determined and plotted. The concentration of SDMA at which the absorbance value was reduced by 50% (relative to the maximum absorbance obtained at 0 μg/mL SDMA; i.e. IC50) was divided by each of the concentrations of ADMA, N-methylarginine or L-arginine, respectively, at which the absorbance value was reduced by 50% (IC50). The resulting value was multiplied by 100 to obtain the value “% cross-reactivity”.
# [2] = test system: rabbit anti-SDMA antibody in serum, Rabbit # 154 (SDMA conjugated with KLH immunogen); assay: Competitive ELISA, specificity of anti-SDMA antibody, Rabbit # 154; details: Rabbit # 154 (1.25K); for IC 50: competition with SDMA-HRP conjugate
# Protocol: as §1, §2, §3, §4, §5
# [3] = test system: polyclonal antibody from Rabbit No. 154; assay: Specificity determined with greater stringency, polyclonal antibody from Rabbit No. 154; details: Rabbit No. 154, greater stringency
# Protocol: as §1, §2
# (§6) 50 μl of the SDMA-HRP conjugate (as described in Example 5 below), 50 μl of ADMA, SDMA, N-methylarginine or L-arginine (at concentrations from 1-100 μg/ml as described above), and 50 μl of rabbit anti-SDMA antibody in serum (1:3000 titer) were sequentially added to an individual well in a 96-well polystyrene microwell plate, precoated with sheep anti-rabbit IgG (commercially available from Beacon Analytical Systems Inc. of Portland, Me.). After a 30 minutes incubation period at room temperature, the wells were washed 4 times with PBST (Phosphate Buffered Saline, 0.05% Tween).
# as §4
# The absorbance values obtained with 0 μg/mL, 1 μg/mL, 10 μg/mL, and 100 μg/mL of ADMA, SDMA, N-methylarginine or L-arginine, respectively, were determined and plotted. […]
# In another experiment, using only polyclonal antibody from Rabbit No. 154, the specificity of the antibody was determined with greater stringency by the method described above.
# [4] = test system: rabbit anti-SDMA antibody in serum, Rabbit # 157 (SDMA conjugated with BSA immunogen); assay: Competitive ELISA, specificity of anti-SDMA antibody, Rabbit # 157; details: Rabbit # 157 (1:15K); for IC 50: competition with SDMA-HRP conjugate
# Protocol: as §1, §2, §3, §4, §5
# [5] = test system: rabbit anti-SDMA antibody in serum, Rabbit # 155 (SDMA conjugated with BSA immunogen); assay: Competitive ELISA, specificity of anti-SDMA antibody, Rabbit # 155; details: Rabbit # 155 (1:3K); for IC 50: competition with SDMA-HRP conjugate
# Protocol: as §1, §2, §6, §4, §5
# [6] = test system: rabbit anti-SDMA antibody in serum, Rabbit # 156 (SDMA conjugated with BSA immunogen); assay: Competitive ELISA, specificity of anti-SDMA antibody, Rabbit # 156; details: Rabbit # 156 (1:20K); for IC 50: competition with SDMA-HRP conjugate
# Protocol: as §1, §2, §3, §4, §5
# [7] = test system: rabbit anti-SDMA antibody in serum, Rabbit # 152 (SDMA conjugated with KLH immunogen); assay: Competitive ELISA, specificity of anti-SDMA antibody, Rabbit # 152; details: Rabbit # 152 (1:5K); for % Cross Reactivity: IC50 of SDMA divided by IC50 of competitor x 100; for IC 50: competition with SDMA-HRP conjugate, absorbance reduced by 50%
# Protocol: as §1, §2, §3, §4, §5
IC 50 [1],IC 50 [2],IC 50 [4],IC 50 [5],IC 50 [6],IC 50 [7],Compound,% Cross Reactivity [1],% Cross Reactivity [2],Specificity (Cross-Reactivity) [3],% Cross Reactivity [4],% Cross Reactivity [5],% Cross Reactivity [6],% Cross Reactivity [7]
>100 µg/mL,>100 µg/mL,>100 µg/mL,>100 µg/mL,>100 µg/mL,>100 µg/mL,"CN(C)C(=N)NCCCC(N)C(=O)O (stereo not drawn) [ADMA, asymmetrical dimethylarginine]",<1%,<1%,<0.2%,<1%,<1%,<1%,<1%
0.65 µg/mL,0.49 µg/mL,1.6 µg/mL,0.73 µg/mL,1.3 µg/mL,1.10 µg/mL,"C/N=C(\NC)NCCCC(N)C(=O)O (stereo not drawn) [SDMA, symmetrical dimethylarginine]",100%,100%,100%,100%,100%,100%,100%
>100 µg/mL,>100 µg/mL,>100 µg/mL,79 µg/mL,>100 µg/mL,>100 µg/mL,"CNC(=N)NCCCC(N)C(=O)O (stereo not drawn) [N-MMA, N-monomethylarginine]",<1%,<1%,,<1%,<1%,<1%,<1%

Compound,IC 50 [1],IC 50 [2],IC 50 [4],IC 50 [5],IC 50 [6],IC 50 [7],% Cross Reactivity [1],% Cross Reactivity [2],Specificity (Cross-Reactivity) [3],% Cross Reactivity [4],% Cross Reactivity [5],% Cross Reactivity [6],% Cross Reactivity [7]
"N=C(N)NCCC[C@H](N)C(=O)O [L-Arginine, arginine]",>100 µg/mL,>100 µg/mL,>100 µg/mL,>100 µg/mL,>100 µg/mL,>100 µg/mL,<1%,<1%,<0.01%,<1%,<1%,<1%,<1%
